What all share (type): in vivo
Assay [1] deals with trained descriptive analysis (DA) panel. Briefly: Sensory evaluation of Test Compound/Reb M blends (sweetness quality and off-taste profile), 15 cm scale. To be noted: RO water, samples target 10 Brix sucrose, 1000 ppm Test Comp, 600 ppm Reb M; for Bitter Aftertaste (1 min) / Sweet Aftertaste (1 min): 1 minute after expectoration; for Bitter Aftertaste (3 min) / Sweet Aftertaste (3 min): 3 minutes after expectoration; for Astringent / Bitter / Licorice / Metallic / Sweet AT (Appearance Time) / Sweet Intensity (ns) / Thickness: room temperature, LSD means. On the procedure:
Sensory results for sweetener blends with Reb M were evaluated using a trained descriptive analysis (DA) panel. Five blend samples were tested in this panel; wherein each sample was designed to target a sweetness equivalence of 10 Brix Sucrose.
Study Designs and Test Samples. A validated and trained panel of 10-12 descriptive analysis panelists participated in these experiments.
During the test sessions, panelists rated the intensity of each attribute on a 15 cm scale. Five test samples were tested for each attribute, in triplicate. The order of samples was randomized and blinded using the Williams Latin Square design. All samples were prepared in reverse osmosis (RO) water and served at room temperature and evaluated using a sip and spit protocol.
Each of the five samples were evaluated for sensory attributes corresponding to sweetness quality and off-taste profile. Attributes of sweetness intensity, sweetness appearance time, sweetness aftertaste and thickness were evaluated as part of the sweetness quality profiling. Specifically, for sweetness aftertaste two time points were evaluated; 1 minute and 3 minutes, after expectoration. The sweetness aftertaste corresponds to the sweetness linger characteristic, often common to high potency sweeteners.
Off-Taste Profile. All 5 blend samples were also evaluated for attributes of bitter, astringent, metallic, licorice, and bitter aftertaste, as part of the off-taste profiling. Specifically, for bitter aftertaste two time points were evaluated; 1 minute and 3 minutes, after expectoration. When referring to ‘bitter’ tastes herein it refers to a sample that confers a bitter taste, activates or that can be detected by a bitter taste receptor and/or confers the perception of a bitter taste in a subject. Table 5 lists the LSD Means Differences for the off-taste evaluation across the 5 blend samples with Reb M.

Assay [2] has as its system 3 tasters. Briefly: Taste profile of Test Compound Na Salt with Reb A in pH 3.0 buffer (Example 5). Here is the method: (§1) The taste profile of the Test Compound Sweetener (Na Salt of the compound) was evaluated in combination with sweeteners—namely Rebaudioside A (Reb A). Enliten® 300000 (Reb A 95) was used in combination with the Test Compound. These samples were evaluated in pH 3.0 buffer by 3 tasters. Samples were tasted in a blinded fashion using sip and spit methodology. The focus of the evaluation was to obtain an indication of the sweetness profile of the blends when compared to sucrose. Materials and Methods. Potassium sorbate was dissolved into water. The remaining ingredients were added and mixed until fully dissolved. The pH of each sample was recorded and the samples tasted using sip and spit method. The samples were then compared to each other.

In assay [3] the test system is 3 tasters. Briefly: Taste profile of Test Compound Na Salt with sucralose in pH 3.0 buffer (Example 7). Here is the method: The taste profile of the Test Compound Sweetener (Na Salt of the compound) was evaluated in combination with sweeteners—namely sucralose. These samples were evaluated in pH 3.0 buffer at 10 SE by 3 tasters. Samples were tasted in a blinded fashion using sip and spit methodology. The focus of the evaluation was to obtain an indication of the sweetness profile of the blends when compared to sucrose.
Materials and Methods. Potassium sorbate was dissolved into water. The remaining ingredients were added and mixed until fully dissolved. The samples were tasted using sip and spit method. The samples were then compared to each other and the HFCS-55 sweetness equivalence target (10 SE).

The test system of assay [4] is 3 tasters. Briefly: Taste profile of Test Compound Na Salt with HFCS-55 in pH 3.0 buffer (Example 4). The following applies: Test Compound (Na Salt) 1100 ppm. On the procedure: as §1, with “High Fructose Corn Syrup (HFCS-55).” for “Rebaudioside A (Reb A). Enliten® 300000 (Reb A 95) was used in combination with the Test Compound.”
Assay [5] deals with trained descriptive analysis (DA) panel. Briefly: Sensory evaluation of Test Compound/Reb M blends (sweetness quality and off-taste profile), 15 cm scale. The following applies: in water solution.
Assay [6] shares this test system. Briefly: Concentration-response testing of the Test Compound vs sucrose, sweetness intensity on gLMS. To be noted: in water at room temperature; tested range 0% to 0.2% (2000 ppm). On the procedure: A concentration-response (CR) testing of the Test Compound was conducted using a trained descriptive analysis (DA) panel to compare the Test Compound in an aqueous matrix to sucrose. The concentration-response curve for the natural sweetener (Test Compound) was determined using a general Labeled Magnitude Scale (gLMS). Trained panelists were asked to rate the sweetness intensity of eight (8) concentrations of sweetener and sucrose, in water at room temperature (RT). […] This relationship was established using a dose response model (Equation 2: R=Rmin+(C^Hillslope)*(Rmax−Rmin)/(C^HillSlope+EC50^HillSlope) for Sucrose and the Test Compound Sweetener. Study design and Test Samples: A trained panel of 10-12 descriptive analysis panelists participated in the experiment. All participants underwent training, during which panelists familiarized themselves with rating the sweetness intensity on the gLMS scale. The scale is depicted in FIG. 4 as a vertical line marked with anchors describing different intensities. The panelists were instructed to rate the perceived sweetness intensity for each sample by marking a line on the scale. The order of samples was randomized and blinded using the William's Latin Square design. The order of sample presentation within each sweetener set was also randomized. All samples were evaluated using a sip and spit protocol.

Setting [7] is: 10 SE target, Test Compound Na Salt 1100 ppm, blend 550 ppm + 85 ppm Sucralose, Sucralose 170 ppm.

In the case of `C=C1C[C@@]23CC[C@H]4[C@@](C)(CCC[C@@]4(C)C(=O)O[C@@H]4O[C@H](CO)[C@@H](O)[C@H](O[C@@H]5O[C@H](CO)[C@@H](O)[C@H](O)[C@H]5O)[C@H]4O[C@@H]4O[C@H](CO)[C@@H](O)[C@H](O)[C@H]4O)[C@@H]2CC[C@]1(O[C@@H]1O[C@H](CO)[C@@H](O)[C@H](O[C@@H]2O[C@H](CO)[C@@H](O)[C@H](O)[C@H]2O)[C@H]1O[C@@H]1O[C@H](CO)[C@@H](O)[C@H](O)[C@H]1O)C3` [Reb M, Rebaudioside M, reference compound], in assay [1], the “Bitter Aftertaste (1 min)” value is on record as 1.6, the “Sweet Aftertaste (1 min)” value is recorded as 5.1, the “Bitter Aftertaste (3 min)” value stood at 0.9 and the “Sweet Aftertaste (3 min)” value was 1.8. In assay [1], this molecule gave an Astringent of 3.1, a Bitter of 4.0, a Licorice of 3.4 and a Metallic of 1.7. In assay [1], the “Sweet AT (Appearance Time)” value is listed as 6.8, the “Sweet Intensity (ns)” value worked out at 10.0 and the Thickness is 3.5.

For `C=C1C[C@@]23CC[C@H]4[C@@](C)(CCC[C@@]4(C)C(=O)O[C@@H]4O[C@H](CO)[C@@H](O)[C@H](O)[C@H]4O)[C@@H]2CC[C@]1(O[C@@H]1O[C@H](CO)[C@@H](O)[C@H](O[C@@H]2O[C@H](CO)[C@@H](O)[C@H](O)[C@H]2O)[C@H]1O[C@@H]1O[C@H](CO)[C@@H](O)[C@H](O)[C@H]1O)C3` [Reb A, Rebaudioside A], in the assay on 3 tasters [2] (8SE target, Test Compound Na Salt 880 ppm, blend 440 ppm + 275 ppm Reb A, Reb A 550 ppm), the sweetness and taste entry is on record as “much less sweet than 8SE”. In the assay on 3 tasters [2] (Test Compound Na Salt 880 ppm, blend 440 ppm + 275 ppm Reb A, Reb A 550 ppm), the “onset, decay and off notes” value is “plastic/floral/metallic taste to it with a bitter and astringent linger”.

As to `OC[C@H]1O[C@H](O[C@]2(CCl)O[C@H](CCl)[C@@H](O)[C@@H]2O)[C@H](O)[C@@H](O)[C@H]1Cl` [Sucralose, sucralose], in the assay with 3 tasters [3] (setting [7]), the mouthfeel and aftertaste/linger result is “Significant aftertaste/linger”; the “sweetness vs HFCS-55 target” value is given as “less sweet than HFCS (LOSE) with a delayed sweetness”.

In the case of `Cc1ccc2[nH]cc(C[C@@H](N)C(=O)O)c2c1` [Compound 5, (R)-2-amino-3-(5-methyl-1H-indol-3-yl)propanoic acid], the adaptation result in the assay with 3 tasters [3] (in combination with sucralose) is “helped reduce the adaptation commonly with sucralose”. For the same molecule, in assay [1], the “Bitter Aftertaste (1 min)” value came to 0.2, the “Sweet Aftertaste (1 min)” value amounted to 3.1, the “Bitter Aftertaste (3 min)” value came out at 0.1 and the “Sweet Aftertaste (3 min)” value was 0.2. In assay [1], this molecule showed an Astringent of 1.7, a Bitter of 1.5, a Licorice of 1.6 and a Metallic of 1.1. Moreover, in assay [1], the “Sweet AT (Appearance Time)” value worked out at 4.2, the “Sweet Intensity (ns)” value was found to be 10.0 and the Thickness came out at 6.7. Also, the adaptation entry in the assay with 3 tasters [2] (in combination with Reb A) is recorded as “helped reduce the adaptation commonly with Reb A”. The mouthfeel result in the assay on 3 tasters [4] (blend 550 ppm + 6.49% HFCS-55) is recorded as “lower in mouthfeel”. For the same molecule, the sweetness and taste result in the assay with 3 tasters [4] (blend 550 ppm + 6.49% HFCS-55, HFCS-55 12.987%) is “fairly clean in taste and provides good upfront sweetness”. Moreover, in assay [5], the “off-taste of the sweetener by itself” value was “minimal bitterness, astringency and bitter linger”. The “concentration-response curve (sweetness intensity, gLMS)” value in assay [6] is reported as “linear relationship”.
